Measurements reported in ChEMBL document CHEMBL4304811, “Development of a Water-Soluble Indolylmaleimide Derivative IM-93 Showing Dual Inhibition of Ferroptosis and NETosis” (ACS Med Chem Lett, 2019).

Legend:
[1] = target: Phosphatidylinositol 4-phosphate 5-kinase type-1 alpha (Homo sapiens) (UniProt Q99755); assay: Binding affinity to wild-type human full length PIP5K1A (M1 to H562 residues) expressed in bacterial expression system assessed as residual binding level at 10 uM by Kinomescan method relative to control
[2] = target: Wee1-like protein kinase (Homo sapiens) (UniProt P30291); assay: Binding affinity to wild-type human partial length WEE1 (M291 to K575 residues) expressed in bacterial expression system assessed as residual binding level at 10 uM by Kinomescan method relative to control
[3] = target: Hepatocyte growth factor receptor (Homo sapiens) (UniProt P08581); assay: Binding affinity to wild-type human partial length MET (D1010 to S1367 residues) expressed in bacterial expression system assessed as residual binding level at 10 uM by Kinomescan method relative to control
[4] = target: Death-associated protein kinase 2 (Homo sapiens) (UniProt Q9UIK4); assay: Binding affinity to wild-type human full length DAPK2 (M1 to S370 residues) expressed in bacterial expression system assessed as residual binding level at 10 uM by Kinomescan method relative to control
[5] = target: Tyrosine-protein kinase ZAP-70 (Homo sapiens) (UniProt P43403); assay: Binding affinity to wild-type human partial length ZAP70 (D20 to G299 residues) expressed in mammalian expression system assessed as residual binding level at 10 uM by Kinomescan method relative to control
[6] = target: Serine/threonine-protein kinase PAK 6 (Homo sapiens) (UniProt Q9NQU5); assay: Binding affinity to wild-type human partial length PAK6 (N298 to C681 residues) expressed in bacterial expression system assessed as residual binding level at 10 uM by Kinomescan method relative to control
[7] = target: CDK4/Cyclin D3 (Homo sapiens) (UniProt P11802+P30281); assay: Binding affinity to wild-type human full length CDK4/cyclinD3 (M1 to E303 residues) expressed in mammalian expression system assessed as residual binding level at 10 uM by Kinomescan method relative to control
[8] = target: Tyrosine-protein kinase Blk (Homo sapiens) (UniProt P51451); assay: Binding affinity to wild-type human partial length BLK (G211 to L503 residues) expressed in bacterial expression system assessed as residual binding level at 10 uM by Kinomescan method relative to control
[9] = target: Casein kinase I isoform delta (Homo sapiens) (UniProt P48730); assay: Binding affinity to wild-type human full length CSNK1D (M1 to K409 residues) expressed in bacterial expression system assessed as residual binding level at 10 uM by Kinomescan method relative to control
[10] = target: Mitogen-activated protein kinase kinase kinase kinase 5 (Homo sapiens) (UniProt Q9Y4K4); assay: Binding affinity to wild-type human partial length MAP4K5 (M1 to P297 residues) expressed in bacterial expression system assessed as residual binding level at 10 uM by Kinomescan method relative to control
[11] = target: 5'-AMP-activated protein kinase catalytic subunit alpha-2 (Homo sapiens) (UniProt P54646); assay: Binding affinity to wild-type human partial length AMPK alpha2 (M1 to E306 residues) expressed in bacterial expression system assessed as residual binding level at 10 uM by Kinomescan method relative to control
[12] = target: Vascular endothelial growth factor receptor 3 (Homo sapiens) (UniProt P35916); assay: Binding affinity to wild-type human partial length FLT4 (E821 to E1196 residues) expressed in bacterial expression system assessed as residual binding level at 10 uM by Kinomescan method relative to control
[13] = target: Homeodomain-interacting protein kinase 3 (Homo sapiens) (UniProt Q9H422); assay: Binding affinity to wild-type human partial length HIPK3 (M153 to N562 residues) expressed in mammalian expression system assessed as residual binding level at 10 uM by Kinomescan method relative to control
[14] = target: Phosphatidylinositol 5-phosphate 4-kinase type-2 beta (Homo sapiens) (UniProt P78356); assay: Binding affinity to wild-type human full length PIP5K2B (M1 to T416 residues) expressed in bacterial expression system assessed as residual binding level at 10 uM by Kinomescan method relative to control
[15] = target: Interleukin-1 receptor-associated kinase 3 (Homo sapiens) (UniProt Q9Y616); assay: Binding affinity to wild-type human partial length IRAK3 (V147 to E596 residues) expressed in bacterial expression system assessed as residual binding level at 10 uM by Kinomescan method relative to control
[16] = system: Epidermal growth factor receptor (Homo sapiens), P00533 [UNDEFINED MUTATION]; assay: Binding affinity to human partial length EGFR L747-T751del/Sins mutant expressed in bacterial expression system assessed as residual binding level at 10 uM by Kinomescan method relative to control
[17] = target: Myosin light chain kinase 2, skeletal/cardiac muscle (Homo sapiens) (UniProt Q9H1R3); assay: Binding affinity to wild-type human partial length MYLK2 (D258 to K570 residues) expressed in bacterial expression system assessed as residual binding level at 10 uM by Kinomescan method relative to control
[18] = target: Tyrosine-protein kinase Fyn (Homo sapiens) (UniProt P06241); assay: Binding affinity to wild-type human partial length FYN (T243 to L534 residues) expressed in bacterial expression system assessed as residual binding level at 10 uM by Kinomescan method relative to control
[19] = target: Ribosomal protein S6 kinase alpha-5 (Homo sapiens) (UniProt O75582); assay: Binding affinity to wild-type human partial length N- terminal RPS6KA5 kinase domain 1 expressed in bacterial expression system assessed as residual binding level at 10 uM by Kinomescan method relative to control
[20] = system: Epidermal growth factor receptor (Homo sapiens), P00533 [UNDEFINED MUTATION]; assay: Binding affinity to human partial length EGFR L747-S752del/P753S mutant expressed in bacterial expression system assessed as residual binding level at 10 uM by Kinomescan method relative to control
[21] = system: Tyrosine-protein kinase ABL1 (Homo sapiens), P00519 [T315I]; assay: Binding affinity to human phosphorylated ABL1 T315I mutant (S229 to K512 residues) expressed in mammalian expression system assessed as residual binding level at 10 uM by Kinomescan method relative to control
[22] = target: TGF-beta receptor type-2 (Homo sapiens) (UniProt P37173); assay: Binding affinity to wild-type human partial length TGFBR2 (I218 to K567 residues) expressed in bacterial expression system assessed as residual binding level at 10 uM by Kinomescan method relative to control
[23] = target: Tyrosine-protein kinase BTK (Homo sapiens) (UniProt Q06187); assay: Binding affinity to wild-type human full length BTK (M1 to S659 residues) expressed in mammalian expression system assessed as residual binding level at 10 uM by Kinomescan method relative to control
[24] = target: Ephrin type-B receptor 2 (Homo sapiens) (UniProt P29323); assay: Binding affinity to wild-type human partial length EPHB2 (I597 to L902 residues) expressed in bacterial expression system assessed as residual binding level at 10 uM by Kinomescan method relative to control
[25] = target: Bone morphogenetic protein receptor type-1B (Homo sapiens) (UniProt O00238); assay: Binding affinity to wild-type human partial length BMPR1B (D178 to L502 residues) expressed in mammalian expression system assessed as residual binding level at 10 uM by Kinomescan method relative to control

Epidermal growth factor receptor (Homo sapiens), P00533 [UNDEFINED MUTATION], sequence (P00533 whole entry, looked up, stated change not applied, the tested form may be a part): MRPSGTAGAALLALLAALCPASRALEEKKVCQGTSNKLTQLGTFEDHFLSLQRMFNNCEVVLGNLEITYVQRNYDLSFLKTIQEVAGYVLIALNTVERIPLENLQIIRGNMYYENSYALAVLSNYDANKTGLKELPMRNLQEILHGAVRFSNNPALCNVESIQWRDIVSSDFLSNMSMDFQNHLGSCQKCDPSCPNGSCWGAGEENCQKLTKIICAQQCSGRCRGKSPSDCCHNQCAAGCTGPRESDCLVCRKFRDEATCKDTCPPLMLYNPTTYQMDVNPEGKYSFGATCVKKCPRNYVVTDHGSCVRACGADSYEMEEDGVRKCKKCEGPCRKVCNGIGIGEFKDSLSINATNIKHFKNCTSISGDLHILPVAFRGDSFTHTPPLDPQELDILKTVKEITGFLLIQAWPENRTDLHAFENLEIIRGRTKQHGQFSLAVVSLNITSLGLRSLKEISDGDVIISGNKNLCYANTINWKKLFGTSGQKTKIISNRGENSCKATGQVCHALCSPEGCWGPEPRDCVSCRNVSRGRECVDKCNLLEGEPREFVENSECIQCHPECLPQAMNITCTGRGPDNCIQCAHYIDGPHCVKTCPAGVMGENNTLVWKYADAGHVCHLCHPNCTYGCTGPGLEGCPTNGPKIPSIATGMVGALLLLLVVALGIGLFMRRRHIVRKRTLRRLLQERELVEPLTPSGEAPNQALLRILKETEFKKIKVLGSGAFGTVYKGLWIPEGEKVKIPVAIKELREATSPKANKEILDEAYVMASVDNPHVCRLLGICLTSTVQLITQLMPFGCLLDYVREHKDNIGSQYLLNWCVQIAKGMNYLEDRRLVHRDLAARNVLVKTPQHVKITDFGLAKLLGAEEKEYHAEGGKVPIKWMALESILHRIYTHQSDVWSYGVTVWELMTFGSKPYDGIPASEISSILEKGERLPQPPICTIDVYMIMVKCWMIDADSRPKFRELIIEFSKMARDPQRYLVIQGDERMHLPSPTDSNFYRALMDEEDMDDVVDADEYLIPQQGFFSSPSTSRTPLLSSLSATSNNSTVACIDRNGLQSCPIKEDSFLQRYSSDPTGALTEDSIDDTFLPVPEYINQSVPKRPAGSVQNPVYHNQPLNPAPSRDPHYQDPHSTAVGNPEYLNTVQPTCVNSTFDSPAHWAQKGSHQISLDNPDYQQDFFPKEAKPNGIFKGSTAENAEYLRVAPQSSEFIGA
Ephrin type-B receptor 2 (Homo sapiens), sequence (P29323 whole entry, the tested form may be a part): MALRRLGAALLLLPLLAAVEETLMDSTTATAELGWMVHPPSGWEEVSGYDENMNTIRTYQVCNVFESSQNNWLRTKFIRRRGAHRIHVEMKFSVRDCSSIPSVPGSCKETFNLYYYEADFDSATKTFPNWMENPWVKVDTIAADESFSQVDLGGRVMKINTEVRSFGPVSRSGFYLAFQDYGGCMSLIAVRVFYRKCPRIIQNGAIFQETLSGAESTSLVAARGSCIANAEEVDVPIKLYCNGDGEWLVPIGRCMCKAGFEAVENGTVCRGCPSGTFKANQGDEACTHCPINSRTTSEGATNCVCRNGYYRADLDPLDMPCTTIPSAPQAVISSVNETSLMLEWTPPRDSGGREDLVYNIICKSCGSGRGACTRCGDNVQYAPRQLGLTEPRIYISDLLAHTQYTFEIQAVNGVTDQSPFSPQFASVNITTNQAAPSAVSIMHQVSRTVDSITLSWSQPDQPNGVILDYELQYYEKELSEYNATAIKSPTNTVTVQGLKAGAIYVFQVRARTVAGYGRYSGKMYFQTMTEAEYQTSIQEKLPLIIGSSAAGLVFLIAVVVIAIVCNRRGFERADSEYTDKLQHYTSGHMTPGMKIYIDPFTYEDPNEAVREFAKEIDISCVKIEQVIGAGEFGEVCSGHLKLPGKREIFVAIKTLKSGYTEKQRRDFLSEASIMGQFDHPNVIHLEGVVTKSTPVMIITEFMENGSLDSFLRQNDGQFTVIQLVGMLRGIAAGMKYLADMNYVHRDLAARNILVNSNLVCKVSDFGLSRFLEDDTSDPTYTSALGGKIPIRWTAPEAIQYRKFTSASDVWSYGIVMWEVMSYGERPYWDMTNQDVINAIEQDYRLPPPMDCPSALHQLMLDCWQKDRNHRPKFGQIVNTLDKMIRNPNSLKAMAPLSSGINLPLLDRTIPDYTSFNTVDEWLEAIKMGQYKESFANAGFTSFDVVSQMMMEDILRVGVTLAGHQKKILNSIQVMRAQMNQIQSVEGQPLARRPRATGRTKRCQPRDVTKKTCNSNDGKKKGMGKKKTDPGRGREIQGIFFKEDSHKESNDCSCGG
Tyrosine-protein kinase BTK (Homo sapiens), sequence (Q06187 whole entry, the tested form may be a part): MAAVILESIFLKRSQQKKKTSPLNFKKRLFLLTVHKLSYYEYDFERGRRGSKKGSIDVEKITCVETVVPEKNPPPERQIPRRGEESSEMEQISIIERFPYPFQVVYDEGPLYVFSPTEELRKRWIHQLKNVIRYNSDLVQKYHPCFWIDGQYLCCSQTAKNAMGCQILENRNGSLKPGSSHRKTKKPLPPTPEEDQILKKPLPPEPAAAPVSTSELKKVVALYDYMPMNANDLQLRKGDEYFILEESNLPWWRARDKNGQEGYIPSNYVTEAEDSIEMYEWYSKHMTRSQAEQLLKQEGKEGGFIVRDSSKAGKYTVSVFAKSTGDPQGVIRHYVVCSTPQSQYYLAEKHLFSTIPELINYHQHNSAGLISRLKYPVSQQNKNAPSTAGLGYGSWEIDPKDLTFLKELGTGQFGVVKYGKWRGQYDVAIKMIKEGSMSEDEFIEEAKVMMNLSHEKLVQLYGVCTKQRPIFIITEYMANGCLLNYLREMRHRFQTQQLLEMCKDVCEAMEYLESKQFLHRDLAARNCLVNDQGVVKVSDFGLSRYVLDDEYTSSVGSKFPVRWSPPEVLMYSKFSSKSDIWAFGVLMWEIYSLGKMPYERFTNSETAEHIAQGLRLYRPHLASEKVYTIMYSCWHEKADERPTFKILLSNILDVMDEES
Ribosomal protein S6 kinase alpha-5 (Homo sapiens), sequence (O75582 whole entry, looked up, the tested form may be a part): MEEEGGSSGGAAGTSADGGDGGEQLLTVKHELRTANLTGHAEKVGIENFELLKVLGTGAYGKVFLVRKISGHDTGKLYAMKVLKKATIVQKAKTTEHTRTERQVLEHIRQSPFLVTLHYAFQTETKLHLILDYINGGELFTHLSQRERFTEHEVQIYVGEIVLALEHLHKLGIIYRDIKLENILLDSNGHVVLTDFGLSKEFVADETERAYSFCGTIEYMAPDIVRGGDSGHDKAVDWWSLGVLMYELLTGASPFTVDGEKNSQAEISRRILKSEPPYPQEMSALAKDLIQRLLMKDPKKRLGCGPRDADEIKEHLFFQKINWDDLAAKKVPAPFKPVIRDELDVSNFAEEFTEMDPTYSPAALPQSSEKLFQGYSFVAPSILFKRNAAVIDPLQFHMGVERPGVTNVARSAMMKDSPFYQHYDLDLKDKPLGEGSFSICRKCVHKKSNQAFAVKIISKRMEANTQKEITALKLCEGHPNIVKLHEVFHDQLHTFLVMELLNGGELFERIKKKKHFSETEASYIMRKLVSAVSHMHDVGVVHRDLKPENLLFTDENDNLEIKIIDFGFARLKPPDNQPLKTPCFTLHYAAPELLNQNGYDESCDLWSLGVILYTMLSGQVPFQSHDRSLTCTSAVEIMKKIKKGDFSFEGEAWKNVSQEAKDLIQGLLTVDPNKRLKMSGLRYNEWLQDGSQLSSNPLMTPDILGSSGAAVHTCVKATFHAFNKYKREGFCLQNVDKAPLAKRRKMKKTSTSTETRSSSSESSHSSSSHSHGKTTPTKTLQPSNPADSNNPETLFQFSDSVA
Wee1-like protein kinase (Homo sapiens), sequence (P30291 whole entry, looked up, the tested form may be a part): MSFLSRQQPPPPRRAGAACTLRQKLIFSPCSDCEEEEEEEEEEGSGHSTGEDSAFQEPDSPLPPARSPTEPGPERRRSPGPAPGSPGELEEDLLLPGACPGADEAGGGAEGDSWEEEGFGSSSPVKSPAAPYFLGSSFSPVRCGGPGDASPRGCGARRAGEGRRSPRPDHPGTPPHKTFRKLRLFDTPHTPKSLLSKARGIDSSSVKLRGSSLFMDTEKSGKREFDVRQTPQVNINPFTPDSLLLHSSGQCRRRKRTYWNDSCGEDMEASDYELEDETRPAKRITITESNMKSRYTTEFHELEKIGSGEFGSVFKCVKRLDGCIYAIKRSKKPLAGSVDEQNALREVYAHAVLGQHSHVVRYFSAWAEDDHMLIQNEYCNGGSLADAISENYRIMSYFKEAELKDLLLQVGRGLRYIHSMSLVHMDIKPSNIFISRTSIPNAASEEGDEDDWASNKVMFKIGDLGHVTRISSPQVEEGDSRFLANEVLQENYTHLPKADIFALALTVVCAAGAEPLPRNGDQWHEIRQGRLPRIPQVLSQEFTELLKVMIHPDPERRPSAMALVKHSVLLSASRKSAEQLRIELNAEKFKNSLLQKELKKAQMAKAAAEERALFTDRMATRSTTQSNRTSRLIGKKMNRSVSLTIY
Serine/threonine-protein kinase PAK 6 (Homo sapiens), sequence (Q9NQU5 whole entry, looked up, the tested form may be a part): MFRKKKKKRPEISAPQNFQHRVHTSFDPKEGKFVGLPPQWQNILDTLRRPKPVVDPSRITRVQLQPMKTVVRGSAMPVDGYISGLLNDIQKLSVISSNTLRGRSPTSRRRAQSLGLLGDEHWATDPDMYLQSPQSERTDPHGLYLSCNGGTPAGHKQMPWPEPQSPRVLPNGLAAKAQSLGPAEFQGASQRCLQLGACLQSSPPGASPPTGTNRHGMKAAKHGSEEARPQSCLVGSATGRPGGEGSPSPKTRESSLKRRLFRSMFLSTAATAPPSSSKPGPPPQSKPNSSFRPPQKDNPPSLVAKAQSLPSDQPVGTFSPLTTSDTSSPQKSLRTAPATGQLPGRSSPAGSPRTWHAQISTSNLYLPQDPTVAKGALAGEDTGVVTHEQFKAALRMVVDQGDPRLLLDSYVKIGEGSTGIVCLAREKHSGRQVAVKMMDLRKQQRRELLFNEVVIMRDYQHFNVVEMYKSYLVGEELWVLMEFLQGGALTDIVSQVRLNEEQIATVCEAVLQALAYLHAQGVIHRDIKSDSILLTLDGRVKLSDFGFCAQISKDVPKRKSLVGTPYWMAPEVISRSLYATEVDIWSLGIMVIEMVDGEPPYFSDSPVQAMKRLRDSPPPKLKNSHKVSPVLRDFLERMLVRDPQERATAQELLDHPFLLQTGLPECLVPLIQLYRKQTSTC

With `CC(C)N1C(=O)C(NCCCN(C)C)=C(c2cn(C)c3ccccc23)C1=O.Cl` the Activity [1] was 96%, the Activity [2] was 100% and the Activity [3] was 97%. It also gave an Activity [4] of 100%, an Activity [5] of 100% and an Activity [6] of 100%. For the same molecule, the Activity [7] was 93%, the Activity [8] was 98% and the Activity [9] was 100%. It also gave an Activity [10] of 100%, an Activity [11] of 89% and an Activity [12] of 99%. The Activity [13] was 90%, the Activity [14] was 100% and the Activity [15] was 85%. The Activity [16] was 94%, the Activity [17] was 100% and the Activity [18] was 100%. The Activity [19] was 97%, the Activity [20] was 88% and the Activity [21] was 90%. For the same molecule, the Activity [22] was 92%, the Activity [23] was 100% and the Activity [24] was 97%. The Activity [25] was 78%.
